Results as given in PubChem BioAssay (NCI).
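Five compound concentrations were applied to cells in 96-well plates for 48 hours; endpoints were derived by simple linear interpolation of the resulting dose-response curve. Definition used: TGI = concentration required for complete inhibition of growth.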

Legend:
Assay in all cases: NCI anticancer screen, dose series, 48 h
[1] = system: 786-0 renal
[2] = system: A498 renal
[3] = system: A549 NSCLC
[4] = system: ACHN renal
[5] = system: BT-549 breast
[6] = system: CAKI-1 renal
[7] = system: CCRF-CEM leukemia
[8] = system: COLO 205 colon
[9] = system: DU-145 prostate
[10] = system: EKVX NSCLC
[11] = system: HCC-2998 colon
[12] = system: HCT-116 colon
[13] = system: HCT-15 colon
[14] = system: HL-60(TB) leukemia
[15] = system: HOP-62 NSCLC
[16] = system: HOP-92 NSCLC
[17] = system: HS 578T breast
[18] = system: HT29 colon
[19] = system: IGROV1 ovarian
[20] = system: K-562 leukemia
[21] = system: KM12 colon
[22] = system: LOX IMVI melanoma
[23] = system: M14 melanoma
[24] = system: MALME-3M melanoma
[25] = system: MCF7 breast
[26] = system: MDA-MB-231 breast
[27] = system: MDA-MB-435
[28] = system: MDA-N
[29] = system: MOLT-4 leukemia
[30] = system: NCI-H226 lung
[31] = system: NCI-H23 lung
[32] = system: NCI-H460 lung
[33] = system: NCI-H522 lung
[34] = system: OVCAR-3 ovarian
[35] = system: OVCAR-4 ovarian
[36] = system: OVCAR-5 ovarian
[37] = system: OVCAR-8 ovarian
[38] = system: PC-3 prostate
[39] = system: RXF 393 renal
[40] = system: SF-268 CNS
[41] = system: SF-295 CNS
[42] = system: SF-539 CNS
[43] = system: SK-MEL-2 melanoma
[44] = system: SK-MEL-28 melanoma
[45] = system: SK-MEL-5 melanoma
[46] = system: SK-OV-3 ovarian
[47] = system: SN12C renal
[48] = system: SNB-19 CNS
[49] = system: SNB-75 CNS
[50] = system: SR leukemia
[51] = system: SW-620 colon
[52] = system: T-47D breast
[53] = system: TK-10 renal
[54] = system: U251 CNS
[55] = system: UACC-257 melanoma
[56] = system: UACC-62 melanoma
[57] = system: UO-31 renal

CC(C)OC(=O)c1ccc(NCc2cc(O)ccc2O)cc1
TGI [1]: 10.3 µM
TGI [2]: > 100 µM
TGI [3]: > 67.8 µM
TGI [4]: 13.5 µM
TGI [5]: 12.4 µM
TGI [6]: 2.81 µM
TGI [7]: > 100 µM
TGI [8]: 9.48 µM
TGI [9]: 15.4 µM
TGI [10]: 17.5 µM
TGI [11]: 28.6 µM
TGI [12]: 19.8 µM
TGI [13]: 9.21 µM
TGI [14]: 1.62 µM
TGI [15]: 31.9 µM
TGI [16]: 5.03 µM
TGI [17]: > 29.6 µM
TGI [18]: 31.5 µM
TGI [19]: 15 µM
TGI [20]: 6.98 µM
TGI [21]: 12.5 µM
TGI [22]: 15.9 µM
TGI [23]: 22.4 µM
TGI [24]: 5.2 µM
TGI [25]: 18.9 µM
TGI [26]: 9.59 µM
TGI [27]: 12.9 µM
TGI [28]: 13.2 µM
TGI [29]: 10.3 µM
TGI [30]: 18.9 µM
TGI [31]: 18 µM
TGI [32]: > 100 µM
TGI [33]: 0.638 µM
TGI [34]: 4.71 µM
TGI [35]: 18.7 µM
TGI [36]: 15.9 µM
TGI [37]: > 21.9 µM
TGI [38]: 3.99 µM
TGI [39]: 5.79 µM
TGI [40]: 28.4 µM
TGI [41]: 20.4 µM
TGI [42]: 3.34 µM
TGI [43]: 27.8 µM
TGI [44]: 29.3 µM
TGI [45]: 10.8 µM
TGI [46]: > 100 µM
TGI [47]: 7.3 µM
TGI [48]: > 68.7 µM
TGI [49]: 18.6 µM
TGI [50]: 10.2 µM
TGI [51]: 17.7 µM
TGI [52]: 4.66 µM
TGI [53]: 14.7 µM
TGI [54]: 17.1 µM
TGI [55]: 26.2 µM
TGI [56]: 30.9 µM
TGI [57]: 2.91 µM
